Here are results for 13 compounds from patent US6939563B2, “Non-fermented osmotic laxative and method for treating and preventing colorectal cancers” (Inra-Institut National de la Recherche Agronomique, priority 1998, dated 2005).

Where two headings read alike, the source gives them in different places.

The test system of assay [1] is colon carcinogenesis in rats. The assay is described as follows: Wargovich et al. Int. J. Cancer 1995 (Ref 12): AOM, then 4 wks, then agent 4 wks. Type of assay: in vivo, rat. Conditions: Ref 12 (Piroxicam line prints Ref 8); from published data. The source says: (§1) Each value is the ratio between the value in the controls given a carcinogenic substance and the value found in animals treated with a preventive agent before or after the carcinogenic substance. The higher the value the greater the effectiveness of the agent.
(§2) The results given in Table 4 were established on the basis of published data indicated in references 2 to 12 in Table 5 below.

Assay [2] deals with colon carcinogenesis in rats. To be noted: AOM, then 4 wks, then agent 4 wks, cited from earlier work; for ACF/rat: Aspirin 0.2 g/kg (control 175), Piroxicam 0.2 (control 125), 13 cis Retinoic (control 140); for Large ACF: controls 55 (aspirin), 40 (piroxicam), 57 (retinoic).
The test system of assay [3] is colon carcinogenesis in rats. As to the kind of experiment: Tanaka et al. Carcinogenesis 1997 (Ref 11): ACF induced by 3 x AOM 15 mg/kg. Type of assay: in vivo, rat. To be noted: from published data; for n° ACF/rat, ratio controls/treated: Hesperidin 1000 ppp, Auraptene 500 ppm.
From the text: as §1, §2

Assay [4] relates to colon carcinogenesis in rats. To be noted: 3 x AOM 15 mg/kg, cited from earlier work; for ACF/rat: Hesperidin 1000 ppm (control 89 ± 17), Acetoxychavicol acet 100 ppm (control 118 ± 28), Auraptene (control 157 ± 21); for Crypt/ACF: controls 2.77 (Hesperidin), 2.54 (Acetoxychavicol acet), 2.91 (Auraptene).
For assay [5], the system named is colon carcinogenesis in rats. The assay is described as follows: Takahashi et al. Carcinogenesis 1997 (Ref 9): ACF induced by 10x PhIP, DHA before each dose. The format is in vivo, rat. To be noted: from published data.
From the text: as §1, §2

Assay [6] deals with colon carcinogenesis in rats. As to the kind of experiment: Takahashi et al. Carcinogenesis 1997 (Ref 10): ACF induced by 20x AOM, DHA with each dose. The format is in vivo, rat. To be noted: from published data.
From the text: as §1, §2

The test system of assay [7] is colon carcinogenesis in rats. Conditions: ACF induced by 10x PhIP, DHA 4 h before each dose, cited from earlier work.
Assay [8] relates to colon carcinogenesis in rats. To be noted: 20x AOM, 1 ml DHA with each dose, 12w, cited from earlier work.
Assay [9] relates to colon carcinogenesis in rats. The assay is described as follows: Pereira-Khoury Cancer Lett. 1991 (Ref 4): agent wk-1 to +4, 2x15 mg AOM. Type of assay: in vivo, rat. Conditions: from published data.
From the text: as §1, §2

Assay [10] concerns colon carcinogenesis in rats. To be noted: agent wk-1 to +4, 2x15 mg AOM at wk 0, cited from earlier work; for Crypt/ACF: control 2.59 ± 0.14; for ACF/rat: control 228 ± 32.
Assay [11] concerns colon carcinogenesis in rats. The assay is described as follows: Pereira et al. Carcinogenesis 1994 (Ref 5): agent day 1-35, AOM d. 7 & 14. The format is in vivo, rat. Conditions: from published data.
From the text: as §1, §2

In assay [12] the test system is colon carcinogenesis in rats. To be noted: agent day 1-35, AOM on d. 7 & 14, cited from earlier work; for Crypt/ACF: control 2.04 ± 0.04; for ACF/rat: control 26 ± 2.2.
The subject of assay [13] is colon carcinogenesis in rats. The assay is described as follows: Salim et al. Jpn J Cancer Res 88 (Ref 8): Vit. D3 post DMH 16 wks. Type of assay: in vivo, rat. To be noted: from published data.
From the text: as §1, §2

Assay [14] deals with colon carcinogenesis in rats. To be noted: Vit. D3 10 ppm post DMH for 16 wks, cited from earlier work.
For assay [15], the system named is colon carcinogenesis in rats. As to the kind of experiment: Reddy et al. Carcinogenesis 1997 (Ref 6): inulin 10 wks, AOM wk 3 & 4. Type of assay: in vivo, rat. To be noted: from published data.
From the text: as §1, §2

The test system of assay [16] is colon carcinogenesis in rats. Conditions: Inulin 10% for 10 wks, AOM at wk 3 & 4, cited from earlier work.

Regarding `CC1=C(/C=C/C(C)=C/C=C/C(C)=C\C(=O)O)C(C)(C)CCC1` [13 cis retinoic], in assay [1], the “Large ACF, ratio controls/treated” value was determined as 1.9 and the “n° ACF/rat, ratio controls/treated” value was determined as 2.0. In assay [2], the ACF/rat is listed as 70 and the “Large ACF” value is recorded as 30.
`C=C[C@H](OC(C)=O)c1ccc(OC(C)=O)cc1` [Acetoxychavicol acet.]: in assay [3], the “n° ACF/rat, ratio controls/treated” value is 1.7; the “Crypts/ACF, ratio controls/treated” value is 1.13; the “Large ACF, ratio controls/treated” value is 2.1. In addition, the “Large ACF” value in [4] (Acetoxychavicol acet 100 ppm, control 60) is recorded as 28. Further, in [4], the ACF/rat is 70 ± 10 and the Crypt/ACF is 2.24.
As to `CC(=O)Oc1ccccc1C(=O)O` [Aspirin], in [1], the “Large ACF, ratio controls/treated” value is reported as 2.7 and the “n° ACF/rat, ratio controls/treated” value came to 1.7. Also, in [2], the ACF/rat was 100 and the “Large ACF” value is 20.
As to `CC(C)=CCC/C(C)=C/COc1ccc2ccc(=O)oc2c1` [Auraptene], in assay [3], the “n° ACF/rat, ratio controls/treated” value is 2.3 and the “Crypts/ACF, ratio controls/treated” value is listed as 1.33.
On to `CC/C=C\C/C=C\C/C=C\C/C=C\C/C=C\C/C=C\CCC(=O)O` [DHA], for which, in [5], the “Crypts/ACF, ratio controls/treated” value is given as 1.13 and the “n° ACF/rat, ratio controls/treated” value was 2.8. Also, in assay [6], the “Crypts/ACF, ratio controls/treated” value turned out to be 1.08; the “Large ACF, ratio controls/treated” value is 2.0; the “n° ACF/rat, ratio controls/treated” value is listed as 1.6. Also, the Crypts/ACF in assay [7] (control 2.69) is 2.39. Also, the ACF/rat in assay [7] (control 22) was 8. The Crypt/ACF in assay [8] (control 3.2) is listed as 2.95. Further, the “Large ACF” value in [8] (control 114) was 56. Moreover, the ACF/rat in [8] (control 308 ± 64) was 191 ± 40.
On to `C[C@]12CC[C@H](O)CC1=CC[C@@H]1[C@@H]2CC[C@]2(C)C(=O)CC[C@@H]12` [Dehydroepiandrosterone], for which, in [9], the “Crypts/ACF, ratio controls/treated” value was 1.06 and the “n° ACF/rat, ratio controls/treated” value came to 1.9. Besides, in assay [10], the Crypt/ACF was 2.44 ± 0.07 and the ACF/rat is 121 ± 19.
On to `COc1ccc([C@@H]2CC(=O)c3c(O)cc(O[C@@H]4O[C@H](CO[C@@H]5O[C@@H](C)[C@H](O)[C@@H](O)[C@H]5O)[C@@H](O)[C@H](O)[C@H]4O)cc3O2)cc1O` [Hesperidin], for which, in assay [3], the “n° ACF/rat, ratio controls/treated” value was 2.6 and the “Crypts/ACF, ratio controls/treated” value is recorded as 1.25. Also, in [4], the ACF/rat is on record as 34 ± 5 and the Crypt/ACF is recorded as 2.22.
On to `CC(=O)N[C@@H](CS)C(=O)O` [N-acetylcysteine], for which, in assay [9], the “Crypts/ACF, ratio controls/treated” value was determined as 1.10 and the “n° ACF/rat, ratio controls/treated” value is reported as 1.5. Besides, in [10], the Crypt/ACF is given as 2.35 ± 0.07 and the ACF/rat is given as 151 ± 21.
`CN1C(C(=O)Nc2ccccn2)=C(O)c2ccccc2S1(=O)=O` [Piroxicam]: in assay [11], the “Crypts/ACF, ratio controls/treated” value came out at 1.10 and the “n° ACF/rat, ratio controls/treated” value was determined as 1.6. In assay [1], the “Large ACF, ratio controls/treated” value was 8 and the “n° ACF/rat, ratio controls/treated” value is 2.8. In assay [12], the Crypt/ACF is reported as 1.84 ± 0.1 and the ACF/rat is recorded as 16 ± 2.8. Besides, in [2], the ACF/rat was 45 and the “Large ACF” value is 5.
Turning to `CC1=C(CC(=O)O)c2cc(F)ccc2/C1=C\c1ccc([S+](C)[O-])cc1` (centres unmarked) [Sulindac], in [11], the “Crypts/ACF, ratio controls/treated” value was found to be 1.10 and the “n° ACF/rat, ratio controls/treated” value was determined as 1.7. Besides, in assay [12], the Crypt/ACF is on record as 1.82 ± 0.14 and the ACF/rat was 15 ± 3.2.
In the case of `C=C1CC[C@H](O)C/C1=C/C=C1\CCC[C@]2(C)[C@@H]([C@H](C)CCCC(C)C)CC[C@@H]12` [Vit. D3], in assay [13], the “Large ACF, ratio controls/treated” value is 1.8 and the “n° ACF/rat, ratio controls/treated” value came out at 1.3. Moreover, the “Large ACF” value in [14] (control 120) was 66. In addition, in assay [14] (control 352), the ACF/rat is given as 269.
As to Inulin, in assay [15], the “Large ACF, ratio controls/treated” value was found to be 1.4 and the “n° ACF/rat, ratio controls/treated” value came out at 1.5. For the same compound, the “Large ACF” value in assay [16] (control 56) is on record as 39. For the same compound, the ACF/rat in [16] (control 120) was 78.
Regarding Oxothiazolidine, in [9], the “Crypts/ACF, ratio controls/treated” value is 1.09 and the “n° ACF/rat, ratio controls/treated” value was found to be 1.9. Further, in [10], the Crypt/ACF was 2.38 ± 0.08 and the ACF/rat is listed as 121 ± 11.
